This passage reports EC50 results from patent publication US20230339886A1 (University of Florida Research Foundation, Incorporated, priority 2020, published 2023).

Usually EC50 stands for the concentration at which the effect is half-maximal.

Where only a bound is given, the exact number is not on record here.

The first experiment deals with T1, REV-ERBα LBD (human; residues 281-614 Δ324-422) (Homo sapiens, UniProt P20393, DEL324-422).
T1 construct: 6×Histag-REV-ERBα LBD (human; residues 281-614 Δ324-422); made in house; host or cells: Escherichia coli
T1 sequence (P20393 with tags, fused parts or gaps DEL324-422): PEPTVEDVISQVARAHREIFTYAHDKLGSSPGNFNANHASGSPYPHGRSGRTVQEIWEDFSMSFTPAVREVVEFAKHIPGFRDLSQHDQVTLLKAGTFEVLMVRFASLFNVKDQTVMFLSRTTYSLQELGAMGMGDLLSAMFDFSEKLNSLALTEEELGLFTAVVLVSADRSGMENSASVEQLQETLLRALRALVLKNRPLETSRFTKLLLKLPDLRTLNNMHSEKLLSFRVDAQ
T1 sequence (Q9Y618 2335-2356 partner limits assumed): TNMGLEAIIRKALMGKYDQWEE
As to the kind of experiment: TR-FRET corepressor interaction assay (REV-ERBα LBD, FITC-SMRT peptide). The class given is biochemical. The settings on record: FITC-SMRT peptide, read-out: REVERBα agonism (EC50 class, FRET assay). In outline:
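Compound serial dilutions (in DMSO, triplicate) incubated 2 h at 4 °C; Tb donor excited at 340 nm, emission read at 495 nm and FITC acceptor at 520 nm. TR-FRET ratio (520/495 nm) plotted against ligand concentration and fitted to a sigmoidal dose-response curve.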
Take `CC(C)(C)Cn1cc([C@H](NS(=O)(=O)C2CC2)C(F)(F)F)c2ccc(-c3ccccn3)cc21` [Example 469, (S)—N-(2,2,2-trifluoro-1-(1-neopentyl-6-(pyridin-2-yl)-1H-indol-3-yl)ethyl)cyclopropanesulfonamide]: the EC50 is 500 to 3000 nM.

In the case of `CC(C)(C)Cn1cc([C@H](NS(=O)(=O)C2CCC2)C(F)F)c2ccc(-c3ccccc3C(F)(F)F)nc21` [Example 518, (S)—N-(2,2-difluoro-1-(1-neopentyl-6-(2-(trifluoromethyl)phenyl)-1H-pyrrolo[2,3-b]pyridin-3-yl)ethyl)cyclobutanesulfonamide], the concentration for a half-maximal effect (EC50) was < 500 nM.

With `CC(C)(C)Cn1cc([C@H](NS(=O)(=O)C2CC2(C)C)C(F)(F)F)c2ccc(-c3ccccc3C(F)(F)F)cc21` (stereo partly drawn) [Example 426, 2,2-dimethyl-N—((S)-2,2,2-trifluoro-1-(1-neopentyl-6-(2-(trifluoromethyl)phenyl)-1H-indol-3-yl)ethyl)cyclopropane-1-sulfonamide], the concentration for a half-maximal effect (EC50) is 500 to 3000 nM.

For `CC(C)(C)Cn1cc([C@H](NS(=O)(=O)C2CCC2)C(F)(F)F)c2ccc(C3=CCCC3)cc21` [Example 521, (S)—N-(1-(6-cyclopentenyl-1-neopentyl-1H-indol-3-yl)-2,2,2-trifluoroethyl)cyclobutanesulfonamide], the concentration for a half-maximal effect (EC50) was < 500 nM.

Consider `CC(C)(C)Cn1cc([C@H](NS(=O)(=O)C2CCC2)C(F)(F)F)c2ccc(C3CCCC3)cc21` [Example 506, (S)—N-(1-(6-cyclopentyl-1-neopentyl-1H-indol-3-yl)-2,2,2-trifluoroethyl)cyclobutanesulfonamide], for which the concentration giving a half-maximal response (EC50) was < 500 nM.

On to `CC(C)(C)Cn1cc([C@H](NS(=O)(=O)C2CCC2)C(F)F)c2cc(F)c(-c3ccccc3C(F)(F)F)nc21` [Example 533, (S)—N-(2,2-difluoro-1-(5-fluoro-1-neopentyl-6-(2-(trifluoromethyl)phenyl)-1H-pyrrolo[2,3-b]pyridin-3-yl)ethyl)cyclobutanesulfonamide], for which the EC50 was < 500 nM.

Turning to `CC(C)Cn1cc([C@H](NS(=O)(=O)C2CCC2)C(F)(F)F)c2ccc(-c3ccccc3C(F)(F)F)cc21` [Example 499, (S)—N-(2,2,2-trifluoro-1-(1-isobutyl-6-(2-(trifluoromethyl)phenyl)-1H-indol-3-yl)ethyl)cyclobutanesulfonamide], the EC50 is < 500 nM.

As for `CC(C)(C)Cn1cc([C@H](NS(=O)(=O)C2CCC2)C(F)(F)F)c2cc(F)c(-c3cccnc3C(F)(F)F)cc21` [Example 528, (S)—N-(2,2,2-trifluoro-1-(5-fluoro-1-neopentyl-6-(2-(trifluoromethyl)pyridin-3-yl)-1H-indol-3-yl)ethyl)cyclobutanesulfonamide], the 50% effective concentration (EC50) is < 500 nM.

With `CC(C)Cn1cc([C@H](NS(=O)(=O)C2CC2)C(F)(F)F)c2cc(F)c(-c3cscn3)cc21` [Example 457, N-[(1S)-2,2,2-trifluoro-1-(5-fluoro-1-isobutyl-6-thiazol-4-yl-indol-3-yl)ethyl]cyclopropanesulfonamide], the EC50 is 500 to 3000 nM.

`C[C@H]1C[C@@H]1S(=O)(=O)N[C@@H](c1cn(CC(C)(C)C)c2cc(-c3ccccc3C(F)(F)F)ccc12)C(F)(F)F` [Example 514, (1S,2S)-2-methyl-N—((S)-2,2,2-trifluoro-1-(1-neopentyl-6-(2-(trifluoromethyl)phenyl)-1H-indol-3-yl)ethyl)cyclopropane-1-sulfonamide]: the half-maximal effective concentration (EC50) is < 500 nM.

The experiment is the same for the next values; noted with them: Table 2, read-out: REVERBα agonism (EC50 class, FRET assay).
As to `CC(C)Cn1cc(CCNS(=O)(=O)N(C)C)c2ccc(-c3cc(F)cc(F)c3)cc21` [Example 54, N-{2-[6-(3,5-difluorophenyl)-1-(2-methylpropyl)-1H-indol-3-yl]ethyl}-N,N-dimethyl-sulfuric diamide], the EC50 was in the range of 500 to 3000 nM.

As to `O=S(=O)(N[C@@H](c1cn(CC2CC2)c2cc(-c3ccccc3C(F)(F)F)c(F)cc12)C(F)(F)F)C1CC1` [Example 349, (S)—N-(1-(1-(cyclopropylmethyl)-5-fluoro-6-(2-(trifluoromethyl)phenyl)-1H-indol-3-yl)-2,2,2-trifluoroethyl)cyclopropanesulfonamide], the EC50 is < 500 nM.

On to `CC(C)(C)Cn1cc(CC2(NS(=O)(=O)C3CC3)CC2)c2ccc(-c3ccccc3C(F)(F)F)cc21` [Example 406, N-(1-((1-neopentyl-6-(2-(trifluoromethyl)phenyl)-1H-indol-3-yl)methyl)cyclopropyl)cyclopropanesulfonamide], for which the EC50 was > 3000 nM.

For the molecule `CC(C)Cn1cc(C(C)CNS(=O)(=O)N(C)C)c2ccc(-c3ccccc3)cc21` (stereo not shown) [Compound 255], the EC50 lay within 500 to 3000 nM.

On to `CN(C)S(=O)(=O)NCCc1cn(Cc2cccc(Cl)c2)c2cc(-c3ccncc3)ccc12` [Example 141, N-{2-[6-(pyridin-4-yl)-1-(3-chlorobenzyl)-1H-indol-3-yl]ethyl}-N,N-dimethylsulfuric diamide], for which the EC50 was < 500 nM.

Regarding `Cc1cccc2c(CCNS(=O)(=O)N(C)C)cn(CC(C)C)c12` [Example 169, dimethyl({2-[7-methyl-1-(2-methylpropyl)-1H-indol-3-yl]ethyl}sulfamoyl)amine], the EC50 was in the range of 500 to 3000 nM.

Take `CNS(=O)(=O)c1ccccc1-c1ccc2c(CCNS(=O)(=O)N(C)C)cn(CC(C)C)c2c1` [Example 72, N′-{2-[6-(2-N′-methylsulfonamidophenyl)-1-(2-methylpropyl)-1H-indol-3-yl]ethyl}-N,N-dimethylsulfuric diamide]: the EC50 was in the range of 500 to 3000 nM.

In the case of `CC(C)Cc1cn(CCN(C)S(=O)(=O)N(C)C)c2ncc(-c3ccncc3)cc12` [Example 125, dimethyl[methyl({2-[3-(2-methylpropyl)-5-(pyridin-4-yl)-1H-pyrrolo[2,3-b]pyridin-1-yl]ethyl})sulfamoyl]amine], the EC50 is < 500 nM.

As for `COc1ccc2cc(-c3ccc4c(c3)c(CC(C)(C)C)cn4CCNS(=O)(=O)C3CC3)ccc2c1` [Compound 220], the half-maximal effective concentration (EC50) was > 3000 nM.

As for `CN(C)S(=O)(=O)NCCc1cn(Cc2cccc(F)c2)c2cc(-c3ccncc3)ccc12` [Example 144, N-{2-[6-(pyridin-4-yl)-1-(3-fluorobenzyl)-1H-indol-3-yl]ethyl}-N,N-dimethylsulfuric diamide], the concentration for a half-maximal effect (EC50) was < 500 nM.

Take `CC(C)(C)Cn1cc([C@H](NS(=O)(=O)C2CC2)C(F)(F)F)c2ccc(Br)c(F)c21` [Example 369, (S)—N-(1-(6-bromo-7-fluoro-1-neopentyl-1H-indol-3-yl)-2,2,2-trifluoroethyl)cyclopropanesulfonamide]: the EC50 was in the range of 500 to 3000 nM.

For the molecule `CC(C)Cn1cc(CCNS(=O)(=O)N(C)C)c2ccc(-c3cccc(S(C)(=O)=O)c3)cc21` [Example 60, N-{2-[6-(3-methylsulfonylphenyl)-1-(2-methylpropyl)-1H-indol-3-yl]ethyl}-N,N-dimethylsulfuric diamide], the EC50 is 500 to 3000 nM.

Regarding `CC(C)Cn1cc([C@H](NS(=O)(=O)C2CC2)C(F)(F)F)c2ccc(-c3ccncc3)cc21` [Example 307, (S)—N-(2,2,2-trifluoro-1-(1-isobutyl-6-(pyridin-4-yl)-1H-indol-3-yl)ethyl)cyclopropanesulfonamide], the EC50 is < 500 nM.

As for `CC(C)(C)Cn1cc([C@H](NS(=O)(=O)C2CC2)C(F)(F)F)c2ccc(-c3ccc(F)cc3C(F)(F)F)cc21` [Example 367, (S)—N-(2,2,2-trifluoro-1-(6-(4-fluoro-2-(trifluoromethyl)phenyl)-1-neopentyl-1H-indol-3-yl)ethyl)cyclopropanesulfonamide], the concentration giving a half-maximal response (EC50) was < 500 nM.

On to `CC(C)C(=O)n1cc(CNS(=O)(=O)N(C)C)c2ccc(-c3ccccc3C(F)(F)F)cc21` [Example 185, 1-(3-{[(dimethylsulfamoyl)amino]methyl}-6-[2-(trifluoromethyl)phenyl]-1H-indol-1-yl)-2-methylpropan-1-one], for which the EC50 is < 500 nM.

Take `CC(C)Cn1cc(CCS(=O)(=O)C(C)C)c2ccc(Br)cc21` [Compound 247]: the EC50 is 500 to 3000 nM.

In the case of `CC(C)(C)Cn1cc([C@H](NS(=O)(=O)C2CC2)C(F)(F)F)c2cc(F)c(-c3ccncc3Cl)cc21` [Example 361, (S)—N-(1-(6-(3-chloropyridin-4-yl)-5-fluoro-1-neopentyl-1H-indol-3-yl)-2,2,2-trifluoroethyl)cyclopropanesulfonamide], the 50% effective concentration (EC50) is < 500 nM.

Turning to `CN(C)S(=O)(=O)NCCc1cn(Cc2cccc(I)c2)c2cc(-c3ccncc3)ccc12` [Example 145, N-{2-[6-(pyridin-4-yl)-1-(3-iodobenzyl)-1H-indol-3-yl]ethyl}-N,N-dimethylsulfuric diamide], the concentration for a half-maximal effect (EC50) is > 3000 nM.

With `CC(C)Cn1cc(CNS(=O)(=O)N(C)C)c2ccc(-c3ccncc3)cc21` [Compound 239], the EC50 is < 500 nM.

On to `CC(C)(C)Cn1cc([C@H](NS(=O)(=O)C2CC2)C(F)(F)F)c2cc(C(F)(F)F)c(Br)cc21` [Example 376, (S)—N-(1-(6-bromo-1-neopentyl-5-(trifluoromethyl)-1H-indol-3-yl)-2,2,2-trifluoroethyl)cyclopropanesulfonamide], for which the concentration giving a half-maximal response (EC50) is > 3000 nM.

As to `CC(C)Cn1cc(CCNS(=O)(=O)N(C)C)c2ccc(OCc3ccccc3)cc21` [Example 115, N′-{2-[6-benzyloxy-1-(2-methylpropyl)-1H-indol-3-yl]ethyl}-N,N-dimethylsulfuric diamide], the EC50 was 500 to 3000 nM.

For `CC(C)Cn1cc(CCNS(=O)(=O)N(C)C)c2cc(-c3ccncc3)ccc21` [Compound 232], the EC50 is > 3000 nM.

Turning to `CC(C)Cn1cc(CCNS(=O)(=O)N(C)C)c2ccc(-c3ccccc3F)cc21` [Example 56, N-{2-[6-(2-fluorophenyl)-1-(2-methylpropyl)-1H-indol-3-yl]ethyl}-N,N-dimethylsulfuric diamide], the concentration for a half-maximal effect (EC50) was 500 to 3000 nM.

Turning to `CC(C)C(=O)n1cc(CNS(=O)(=O)N(C)C)c2ccc(-c3ccnn3C)cc21` [Example 184, 1-(3-{[(dimethylsulfamoyl)amino]methyl}-6-(1-methyl-1H-pyrazol-5-yl)-1H-indol-1-yl)-2-methylpropan-1-one], the concentration for a half-maximal effect (EC50) is > 3000 nM.
